# Molecular target: Coagulation factor X (Homo sapiens) (UniProt P00742)
# Assay: Compound was evaluated for the inhibition of anti-thrombin III (AT III)-mediated coagulation proteinase factor Xa
# Chain of Coagulation factor X (Homo sapiens) (P00742 41-179 limits assumed): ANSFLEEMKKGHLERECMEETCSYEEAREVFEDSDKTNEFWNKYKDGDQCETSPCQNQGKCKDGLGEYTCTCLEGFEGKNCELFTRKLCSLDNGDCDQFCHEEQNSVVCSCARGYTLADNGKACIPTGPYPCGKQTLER
# Chain of Coagulation factor X (Homo sapiens) (P00742 235-488 limits assumed): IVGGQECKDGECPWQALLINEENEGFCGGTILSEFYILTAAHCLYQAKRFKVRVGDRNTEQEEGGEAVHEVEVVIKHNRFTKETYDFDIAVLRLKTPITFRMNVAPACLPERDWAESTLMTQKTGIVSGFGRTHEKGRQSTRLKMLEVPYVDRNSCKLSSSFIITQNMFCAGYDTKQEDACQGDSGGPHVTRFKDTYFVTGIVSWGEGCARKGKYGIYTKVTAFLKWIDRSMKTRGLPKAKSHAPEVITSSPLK
row,SMILES,Activity [U mg-1]
1,CCCCCCCCO[C@@H]1[C@@H](OS(=O)(=O)O)[C@H](O[C@H]2[C@H](OS(=O)(=O)O)[C@@H](OS(=O)(=O)O)[C@@H](OC)O[C@@H]2COS(=O)(=O)O)O[C@@H](C(=O)O)[C@H]1O[C@@H]1O[C@H](COS(=O)(=O)O)[C@@H](O[C@@H]2O[C@H](C(=O)O)[C@@H](O[C@@H]3O[C@H](COS(=O)(=O)O)[C@@H](OC)[C@H](OC)[C@H]3OS(=O)(=O)O)[C@H](OCCCC)[C@H]2OCCCC)[C@H](OS(=O)(=O)O)[C@H]1OS(=O)(=O)O,700
2,CO[C@H]1O[C@H](COS(=O)(=O)O)[C@@H](O[C@@H]2O[C@@H](C(=O)O)[C@@H](O[C@@H]3O[C@H](COS(=O)(=O)O)[C@@H](O[C@@H]4O[C@H](C(=O)O)[C@@H](O[C@@H]5O[C@H](COS(=O)(=O)O)[C@@H](OC)[C@H](OC)[C@H]5OS(=O)(=O)O)[C@H](OC)[C@H]4OC)[C@H](OS(=O)(=O)O)[C@H]3OS(=O)(=O)O)[C@H](OCCCc3ccccc3)[C@H]2OS(=O)(=O)O)[C@H](OS(=O)(=O)O)[C@H]1OS(=O)(=O)O,434
3,CCCCO[C@@H]1[C@@H](OS(=O)(=O)O)[C@H](O[C@H]2[C@H](OC)[C@@H](OC)[C@H](O[C@H]3[C@H](OS(=O)(=O)O)[C@@H](OS(=O)(=O)O)[C@H](O[C@H]4[C@H](OC)[C@@H](OS(=O)(=O)O)[C@H](O[C@H]5[C@H](OS(=O)(=O)O)[C@@H](OS(=O)(=O)O)[C@@H](OC)O[C@@H]5COS(=O)(=O)O)O[C@H]4C(=O)O)O[C@@H]3COS(=O)(=O)O)O[C@@H]2C(=O)O)O[C@H](COS(=O)(=O)O)[C@H]1OCCCC,1500
4,CO[C@H]1O[C@H](COS(=O)(=O)O)[C@@H](O[C@@H]2O[C@@H](C(=O)O)[C@@H](O[C@@H]3O[C@H](COS(=O)(=O)O)[C@@H](O[C@@H]4O[C@H](C(=O)O)[C@@H](O[C@@H]5O[C@H](COS(=O)(=O)O)[C@@H](O)[C@H](O)[C@H]5NS(=O)(=O)O)[C@H](O)[C@H]4O)[C@H](OS(=O)(=O)O)[C@H]3NS(=O)(=O)O)[C@H](O)[C@H]2OS(=O)(=O)O)[C@H](OS(=O)(=O)O)[C@H]1NS(=O)(=O)O,1250

# The next lines start with the values.
row,Activity [U mg-1],SMILES
1,994,CCCCO[C@@H]1[C@@H](OS(=O)(=O)O)[C@H](O[C@H]2[C@H](OS(=O)(=O)O)[C@@H](OS(=O)(=O)O)[C@@H](OC)O[C@@H]2COS(=O)(=O)O)O[C@@H](C(=O)O)[C@H]1O[C@@H]1O[C@H](COS(=O)(=O)O)[C@@H](O[C@@H]2O[C@H](C(=O)O)[C@@H](O[C@@H]3O[C@H](COS(=O)(=O)O)[C@@H](OC)[C@H](OC)[C@H]3OS(=O)(=O)O)[C@H](OC)[C@H]2OC)[C@H](OS(=O)(=O)O)[C@H]1OS(=O)(=O)O
2,1320,CO[C@H]1O[C@H](COS(=O)(=O)O)[C@@H](O[C@@H]2O[C@@H](C(=O)O)[C@@H](O[C@@H]3O[C@H](COS(=O)(=O)O)[C@@H](O[C@@H]4O[C@H](C(=O)O)[C@@H](O[C@@H]5O[C@H](COS(=O)(=O)O)[C@@H](OC)[C@H](OC)[C@H]5OS(=O)(=O)O)[C@H](OC)[C@H]4OC)[C@H](OS(=O)(=O)O)[C@H]3OS(=O)(=O)O)[C@H](OC)[C@H]2OS(=O)(=O)O)[C@H](OS(=O)(=O)O)[C@H]1OS(=O)(=O)O
3,1100,CCCCO[C@@H]1[C@@H](OCCCC)[C@H](O[C@H]2[C@H](OS(=O)(=O)O)[C@@H](OS(=O)(=O)O)[C@H](O[C@H]3[C@H](OC)[C@@H](OS(=O)(=O)O)[C@H](O[C@H]4[C@H](OS(=O)(=O)O)[C@@H](OS(=O)(=O)O)[C@@H](OC)O[C@@H]4COS(=O)(=O)O)O[C@H]3C(=O)O)O[C@@H]2COS(=O)(=O)O)O[C@H](C(=O)O)[C@H]1O[C@@H]1O[C@H](COS(=O)(=O)O)[C@@H](OC)[C@H](OC)[C@H]1OS(=O)(=O)O

# — ChEMBL document CHEMBL1126461, “Biologically active heparin-like fragments with a non-glycosaminoglycan structure. Part 3 : o-alkylated-o-sulphated pentasaccharides” (Bioorg Med Chem Lett, 1992)
